What was measured:
[1] = excess molar enthalpy (molar enthalpy of mixing); xn = mol fraction of the nth substance listed; conditions: 298.15 K, 101 kPa, Liquid, isothermal titration calorimeter
[2] = xn = mol fraction of the nth substance listed; conditions: 101.33 kPa, Liquid, Vibrating tube method

c1cc[nH]c1 [pyrrole] + c1ccncc1
[1]
Conditions | excess molar enthalpy [kcal/mol]
x1 = 0.03 | -0.0466
x1 = 0.06 | -0.106
x1 = 0.0898 | -0.164
x1 = 0.1197 | -0.22
x1 = 0.1497 | -0.274
x1 = 0.1797 | -0.326
x1 = 0.2096 | -0.375
x1 = 0.2395 | -0.422
x1 = 0.2695 | -0.466
x1 = 0.2994 | -0.505
x1 = 0.3295 | -0.541
x1 = 0.3594 | -0.572
x1 = 0.3895 | -0.597
x1 = 0.4195 | -0.616
x1 = 0.4495 | -0.629
x1 = 0.4795 | -0.634
x1 = 0.4832 | -0.637
x1 = 0.4902 | -0.637
x1 = 0.5095 | -0.633
x1 = 0.5202 | -0.633
x1 = 0.5396 | -0.625
x1 = 0.5502 | -0.622
x1 = 0.5696 | -0.61
x1 = 0.5802 | -0.604
x1 = 0.5906 | -0.595
x1 = 0.6102 | -0.58
x1 = 0.6402 | -0.551
x1 = 0.6702 | -0.517
x1 = 0.7002 | -0.479
x1 = 0.7302 | -0.437
x1 = 0.7602 | -0.393
x1 = 0.7901 | -0.347
x1 = 0.8201 | -0.298
x1 = 0.8501 | -0.249
x1 = 0.8801 | -0.198
x1 = 0.9101 | -0.147
x1 = 0.9401 | -0.0953
x1 = 0.9701 | -0.0432

mass density [kg/m3], [2]
Conditions | 298.15 K | 308.15 K | 318.15 K | 328.15 K | 338.15 K
x1 = 0.0735 | 977.37 | 967.47 | 957.53 | 947.53 | 937.46
x1 = 0.1006 | 977.04 | 967.22 | 957.34 | 947.41 | 937.4
x1 = 0.1428 | 976.57 | 966.85 | 957.07 | 947.23 | 937.32
x1 = 0.1978 | 975.9 | 966.3 | 956.66 | 946.95 | 937.15
x1 = 0.2273 | 975.56 | 966.03 | 956.45 | 946.8 | 937.07
x1 = 0.3021 | 974.44 | 965.06 | 955.63 | 946.12 | 936.52
x1 = 0.3704 | 973.5 | 964.22 | 954.89 | 945.49 | 936.01
x1 = 0.4409 | 972.25 | 963.08 | 953.85 | 944.54 | 935.14
x1 = 0.5426 | 970.64 | 961.59 | 952.47 | 943.27 | 933.99
x1 = 0.6168 | 969.44 | 960.46 | 951.41 | 942.28 | 933.06
x1 = 0.682 | 968.6 | 959.68 | 950.68 | 941.6 | 932.43
x1 = 0.7554 | 967.69 | 958.82 | 949.87 | 940.85 | 931.72
x1 = 0.8374 | 966.69 | 957.88 | 948.98 | 939.99 | 930.91
x1 = 0.9063 | 966.15 | 957.38 | 948.53 | 939.58 | 930.54
x1 = 0.9591 | 965.77 | 957.04 | 948.21 | 939.3 | 930.28
x1 = 1 | 965.54 | 956.83 | 948.03 | 939.14 | 930.13
